Assays:
PC-3 cells [1] = assay: Fluorescence-based migration assay toward hrMCP-1; type: cell-based, human; settings: MCP-1 1-100 ng/mL
Description: (§1) Flouresence-based Migration Assay—Cell migration was assessed using the Innocyte Cell Migration Assay (Calbiochem, Inc.) following the manufacturer's instructions. Briefly, increasing concentrations of MCP-1 (1-100 ng/mL) in the presence and absence of CCR2 inhibitors or neutralizing antibodies were added to the lower chamber of a 96 well plate. Cells were harvested by 0.5 μM EDTA release and resuspended at 2.5×10^5 cells/mL in serum free media. 2.5×10^4 cells were added to the upper chamber and allowed to migrate through the membrane with 8 μm pores for 24 hours at 37° C. and 5% CO2 atmosphere. Cells that migrated through the membrane were detached and labeled with Calcein AM and fluorescence was measured using fluorescent plate reader with excitation wavelength of 485 nm and emission wavelength of 520 nm. The experiments were repeated twice and each conditioned was performed in quadruplicate in each experiment.

VCaP cells = assay: Fluorescence-based migration assay toward hrMCP-1; type: cell-based, human; settings: MCP-1 1-100 ng/mL
Description: as §1

PC-3 cells [2] = assay: Transwell migration assay toward hrCCL2; type: cell-based, human; settings: hrCCL2 100 ng/mL, 24 hours
Description: (§2) Increasing concentrations of CCL2 (1-100 ng/mL) or conditioned media was added to the lower chamber of a 24-well plate. Cells were harvested by EDTA release and resuspended in serum free media at 5×10^4 cells/ml. 2.5×10^4 cells were added to the upper chamber of the transwell insert and incubated for 24 hours at 37° C. and 5% CO^2 atmosphere. At the end of the incubation period, the cells were fixed with 4% formaldehyde in PBS for 5 minutes. Non-adherent cells were removed from inside the inserts with a cotton-tipped applicator. Cells which had migrated to the underside of the insert were stained with 0.5% crystal violet for 5 minutes and rinsed thoroughly with tap water. Inserts were allowed to dry and the cells were counted using an inverted microscope.

U937 premonocytic cells = assay: Macrophage migration assay (modified Boyden chamber); type: cell-based, human; settings: VCaP conditioned media; pre-incubation 30 μg/mL
Description: as §2, with “Increasing concentrations of CCL2 (1-100 ng/mL) or conditioned media was added to the lower chamber of a 24-well plate.” left out, “by 0.5 μM” for “by”, “CO2” for “CO^2”, “with” for “with a”, “swabs.” for “applicator.”, “that” for “which”

mouse CCL2/JE = mouse CCL2/JE (Mus musculus, UniProt P10148); assay: Cross-reactivity / neutralization; type: binding
mouse CCL2/JE, sequence (P10148 24-148): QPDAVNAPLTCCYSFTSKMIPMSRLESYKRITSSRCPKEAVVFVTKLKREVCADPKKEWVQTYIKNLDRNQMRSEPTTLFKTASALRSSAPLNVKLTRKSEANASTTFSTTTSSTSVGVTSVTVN

VCaP xenografts = assay: VCaP subcutaneous xenograft model of tumorigenesis; type: in vivo, male SCID mice
Description: Xenograft tumors were established as previously described (Loberg et al., Urol Oncol 24 (2006) 161-168). Briefly, male SCID mice (5-6 weeks of age) were injected subcutaneously in the flank with 1×10^6 VCaP cells in 200 μL Matrigel (BD Biosciences, Inc.). Tumor volumes were calculated by caliper measurement performed weekly to monitor and track tumor growth (tumor volume=L×W×W×0.56). […] Mice were treated with 2 mg/Kg antibody twice weekly by intraperitoneal injection, beginning on Day 28 and for the remainder of the study.
Xenograft tumors were harvested and placed in fresh 10% formalin. Tumors were paraffin-embedded and 5 μm sections were cut and placed on glass slides. Hematoxylin and eosin stain was performed per the manufacturer's instructions (Sigma, Inc.). Identification of neovascularization was accomplished by labeling with an anti-CD31 antibody and macrophage infiltration was identified using an anti-CD68 antibody. Tissue sections were incubated for 10 minutes in citrate buffer, pH 6.0 and microwaved. Sections were incubated with anti-CD31 (DakoCytomation, Inc.; 1:50) or anti-CD68 (DaKoCytomation, Inc.; 1:1600) for 30 minutes and detected with LSAB+detection/DAB (3,3′-Diaminobenzidine; Sigma, Inc.) for 5 minutes. Slides were dipped in hematoxylin for 1 second as a counterstain.

PC-3Luc cells [3] = assay: WST-1 proliferation assay with hrCCL2 and anti-CCL2 antibodies; type: cell-based, human; settings: 72 hours, antibodies 30 μg/mL
Description: Cells were seeded at a density of 1×10^5 cells/ml for PC-3Luc cells in a 96 well plate in RPMI+10% FBS (FCS is mentioned in previous section). Twenty-four hours after seeding, media was changed to either serum-free RPMI or RPMI+10% FBS. Cell growth was determined 72 hours later using the WST-1 assay (Pierce Biotech, Inc.) following the manufacturer's instructions.

PC-3Luc cells [4] = assay: Bioluminescent in vivo model of metastasis (Example 4, antibodies and/or docetaxel); design: species or system male SCID mice
Description: Bioluminescent imaging of PC-3Luc was preformed as previously described through The University of Michigan Small Animal Imaging Resource facility (MSAIR) (Loberg et al., 2006. Neoplasia. 8:578-586). Briefly, PC-3Luc cells were introduced into male SCID mice (5-6 wks of age) by intracardiac injections. Mice were serially imaged weekly for up to 12 weeks using a CCD IVIS system using a 50 mm lens (Xenogen Corp, Alameda, Calif.) and the results were analyzed using LIVING IMAGE software (Xenogen Corp.). Mice were separated into groups and treatment began at week 2 post-intracardiac injection and mice received 2 mg/Kg antibody twice weekly by intraperitoneal (i.p.) injection (for up to eight weeks) and/or 40 mg/Kg Taxotere i.p. injection once per week for three weeks. Mice were injected with luciferin (40 mg/mL) intraperitoneally and ventral images were acquired 15 min postinjection under 1.75% isofluorane/air anesthesia. Total tumor burden of each animal was calculated using regions of interest (ROIs) that encompassed the entire animal. Animals were sacrificed after week 6 image and individual organs were harvested and immediately placed in formalin.

“CNTO888: human IgG1κ antibody that neutralizes human CCL2” was tested, and the “effect on MCP-1 induced dose dependent migration of PC-3 cells” value (PC-3 cells [1]) was “attenuated”, the “effect on MCP-1 induced dose dependent migration of VCaP cells” value (VCaP cells) was “attenuated” and the “hrCCL2-induced migration, mean ±SD” value (PC-3 cells [2]) was 217±29. For the same substance, the “number of migrating U937 cells” value (U937 premonocytic cells) was 225±111, the “cross-reaction with or neutralization of mouse CCL2/JE” value (mouse CCL2/JE) was “do not cross-react with or neutralize” and the “attenuation of VCaP subcutaneous tumor growth” value (VCaP xenografts; 2 mg/Kg twice weekly i.p.) was 42.2%. The “reduction in tumor volume / tumor growth on Day 50 compared to control antibody” value (VCaP xenografts; 2 mg/Kg twice weekly i.p. from Day 28 for 3 weeks) was 42.2%, the “macrophage infiltration, CD68+ cells, mean ±SD” value (VCaP xenografts; VCaP xenograft, 2 mg/Kg twice weekly i.p.) was 9.00±7.94 cells per 100× objective field and the “angiogenesis by CD31 staining of xenograft tumors” value (VCaP xenografts; compared to isotype controls) was “decreased the amount of angiogenesis”. For the same substance, the “cell viability (WST-1) as a measure of proliferation, mean ±SD” value (PC-3Luc cells [3]; CCL2 10 ng/mL) was 112.52±10.2, the “cell viability (WST-1) as a measure of proliferation, mean ±SD” value (PC-3Luc cells [3]; CCL2 100 ng/mL) was 132.93±17.08 and the “reduction in overall tumor burden compared to control antibody” value (PC-3Luc cells [4]; Day 35, 2 mg/Kg twice weekly i.p. for three weeks from Day 14) was 46.52%. The “reduction in tibia-specific tumor burden” value (PC-3Luc cells [4]; Day 35, compared to control antibody) was 45.49%, the “animals of group counted at Wk 6 (tumor regression, Table 2)” value (PC-3Luc cells [4]; Wk 6 = First week after cessation of Taxotere) was 1 of 9 and the “total tumor burden at Day 35” value (PC-3Luc cells [4]; antibodies 2 mg/Kg i.p. twice weekly, docetaxel 40 mg/Kg i.p.) was 52.78 % of PBS-treated animals.

— patent US20080118437A1, “Diagnosis and treatment O prostate cancer” (Regents of the University of Michigan, priority 2006, published 2008)
